Consider 21 compounds from ChEMBL document CHEMBL5104160, “In vitro and in vivo neuroprotective effect of novel mPGES-1 inhibitor in animal model of Parkinson's disease” (Bioorg Med Chem Lett, 2022).

pEC50, pIC50: −log10 of the molar value. Activity calls are given as the source filed them. The rule behind the calls is not given here.

The pIC50 is the IC50 on a negative log10 scale, so that one unit is a factor of ten.

The test system of data set [1] is RAW264.7. Kind of data set: Cytotoxicity against mouse RAW264.7 cells assessed as decrease in cell viability at 1 uM. It is filed as toxicity, cell-based. Particulars: raw264.7, 1 µM.
The nature of data set [2]: Inhibition of PGE2 production in LPS-induced mouse RAW264.7 cells. It is filed as functional, cell-based.
Data set [3] has as its system Blood. Nature of the data set: Inhibition of PGE2 production in LPS-induced human whole blood. It is filed as functional, tissue-based.
Data set [4] relates to PC-12. Nature of the data set: Neuroprotective activity against 6-OHDA-induced cytotoxicity in rat PC-12 cells at 10 uM measured after 12 hrs by MTT assay. It counts as functional, cell-based. A general note: Formazan colour is commonly taken as a measure of viable cells.
The subject of data set [5] is Mus musculus. Nature of the data set: Neuroprotective activity against in 6-OHDA-induced neurotoxicity in mouse assessed as increase in tyrosine hydroxylase (TH)-positive neurons in substantia nigra pars compacta of brain at 1 mg/kg/day, ip administered for 7 days measured by immunohistochemistry analysis. It is filed as functional, organism-based. Particulars: time 7.0 day.

The test system of data set [6] is PC-12. Nature of the data set: Neuroprotective activity against 6-OHDA-induced cytotoxicity in rat PC-12 cells measured after 3 hrs by MTT assay. It counts as functional. Particulars: read-out: ED50 (the source's name).
Data set [7] has as its target T1, Prostaglandin E synthase (Homo sapiens, UniProt O14684).
T1 sequence (O14684 whole entry): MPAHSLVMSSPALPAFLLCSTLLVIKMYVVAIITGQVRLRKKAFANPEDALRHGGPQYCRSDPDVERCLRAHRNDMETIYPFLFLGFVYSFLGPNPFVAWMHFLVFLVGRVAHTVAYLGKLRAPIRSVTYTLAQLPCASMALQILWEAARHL
Kind of data set: Inhibition of human mPGES-1 assessed as reduction in PGE2 production.

For data set [8], the system named is Mus musculus. Kind of data set: Neuroprotective effect in 6-OHDA-induced lesioned mouse model of Parkinson's disease assessed as increase in latency time at 1 mg/kg/day, ip administered for 7 days measured by rotarod test. Conditions: time 7.0 day. It counts as functional, organism-based.
Data set [9] concerns Mus musculus. Kind of data set: Neuroprotective effect in 6-OHDA-induced lesioned mouse model of Parkinson's disease assessed as decrease in falling frequency at 1 mg/kg/day, ip administered for 7 days measured by rotarod test. It is filed as functional, organism-based. Conditions: time 7.0 day.
The test system of data set [10] is Mus musculus. Kind of data set: Neuroprotective effect in 6-OHDA-induced lesioned mouse model of Parkinson's disease assessed as decrease in time to turn at 1 mg/kg/day, ip administered for 7 days measured by Pole test. It counts as functional, organism-based. Conditions: time 7.0 day.
Data set [11] deals with A549. Kind of data set: Inhibition of PGE2 production in IL-1beta-induced human A549 cells assessed as decrease in PGE2 production measured after 24 hrs by enzyme immunoassay. It counts as functional, cell-based. Conditions: A549, 24 h.
Data set [12] has as its system Mus musculus. Kind of data set: Neuroprotective effect in 6-OHDA-induced lesioned mouse model of Parkinson's disease assessed as decrease in time for locomotion activity at 1 mg/kg/day, ip administered for 7 days measured by Pole test. It counts as functional, organism-based. Conditions: time 7.0 day.
In data set [13] the test system is Mus musculus. Kind of data set: Neuroprotective activity against in 6-OHDA-induced neurotoxicity in mouse assessed as increase in tyrosine hydroxylase (TH)-positive fibers in striatum of brain at 1 mg/kg/day, ip administered for 7 days measured by immunohistochemistry analysis. It is filed as functional, organism-based. Conditions: time 7.0 day.
For data set [14], the system named is RAW264.7. Kind of data set: Cytotoxicity against mouse RAW264.7 cells assessed as decrease in cell viability at 100 to 1000 nM. Conditions: raw264.7, 1 µM, dose 100-1000 nM. It counts as toxicity, cell-based.
Data set [15] relates to Mus musculus. Nature of the data set: Neuroprotective effect in 6-OHDA-induced lesioned mouse model of Parkinson's disease assessed as decrease in time for locomotion activity at 80 mg/kg/day, po administered for 7 days measured by Pole test. It is filed as functional, organism-based. Particulars: time 7.0 day.
The subject of data set [16] is Mus musculus. Nature of the data set: Neuroprotective effect in 6-OHDA-induced lesioned mouse model of Parkinson's disease assessed as decrease in time to turn at 80 mg/kg/day, po administered for 7 days measured by Pole test. Particulars: time 7.0 day. It is filed as functional, organism-based.

`O=C(Oc1ccc(OCc2ccccc2)cc1)N(Nc1ccccc1)S(=O)(=O)c1ccc(C(F)(F)F)cc1`: the Activity result in [1] is recorded as “Non-Toxic”. Further, in [2], the pIC50 was 7.33.

Turning to `O=C(Oc1ccc(OCc2ccccc2)cc1)N(Nc1ccccc1)S(=O)(=O)c1ccc(-c2ccccc2)cc1`, the Activity entry in [1] is “Non-Toxic”. Moreover, the pIC50 in data set [2] was 7.03.

Take `O=C(Oc1ccc(OCc2ccccc2)cc1)N(Nc1cccc(Cl)c1)S(=O)(=O)c1ccc(Cl)cc1`: the negative-log IC50 (pIC50) in data set [3] is 6.37; in [7], 8.94; in [11], 6.84; in data set [2] it was 7.38. The result in data set [4], in data set [5], in data set [8], in [9], in data set [10] and in data set [12] was Active. In data set [13], the result was Active. Moreover, the Activity entry in data set [1] and in [14] was “Non-Toxic” each time. Moreover, the pEC50 in data set [6] is 8.52.

As to `CCc1ccc(S(=O)(=O)N(Nc2ccccc2)C(=O)Oc2ccc(Oc3ccccc3)cc2)cc1`, the Activity result in data set [1] is on record as “Non-Toxic”. Besides, the pIC50 in data set [2] is 6.36.

For `Cc1cccc(NN(C(=O)Oc2ccc([N+](=O)[O-])cc2)S(=O)(=O)c2ccc(Cl)cc2)c1`, the Activity entry in data set [1] is on record as “Non-Toxic”. This compound also showed a negative logarithm of the IC50 (pIC50) in [2] of 6.09.

Turning to `O=C(Oc1cccc2c1CCC2)N(Nc1ccccc1)S(=O)(=O)c1ccc(Cl)cc1`, in data set [1], the Activity result was “Non-Toxic”. Further, in [2], the pIC50 is 6.37.

Take `Cc1ccccc1NN(C(=O)Oc1ccccc1)S(=O)(=O)c1ccccc1`: the Activity entry in [1] is reported as “Non-Toxic”. The pIC50 in data set [2] is 6.00.

For `O=C(Oc1ccccc1)N(Nc1ccccc1)S(=O)(=O)c1ccc(F)cc1`, the Activity entry in data set [1] was “Non-Toxic”.

Consider `O=C(Oc1ccc([N+](=O)[O-])cc1)N(Nc1cccc(Cl)c1)S(=O)(=O)c1ccc(Cl)cc1`, for which the Activity entry in [1] is listed as “Non-Toxic”. Also, the pIC50 in [2] is 6.12.

Regarding `N[C@@H](Cc1ccc(O)c(O)c1)C(=O)O`, the outcome in data set [15] and in data set [16] was Active.

Consider `Cc1ccccc1NN(C(=O)Oc1ccccc1)S(=O)(=O)c1ccc(Cl)cc1`, for which, in [1], the Activity result is “Non-Toxic”. For the same compound, the pIC50 in data set [2] was less than 6.00.

Consider `O=C(Oc1cccc2c1CCC2)N(Nc1ccccc1)S(=O)(=O)c1ccc(C(F)(F)F)cc1`, for which the Activity result in data set [1] was “Non-Toxic”. In [2], this compound gave a negative logarithm of the IC50 (pIC50) of 6.61.

On to `Cc1ccc(S(=O)(=O)N(Nc2ccccc2)C(=O)Oc2cccc3c2CCC3)cc1`, for which the Activity entry in data set [1] is “Non-Toxic”. In [2], this compound gave a pIC50 of 6.40.

`Cc1cc(C)c(S(=O)(=O)N(Nc2ccccc2)C(=O)Oc2ccc(OCc3ccccc3)cc2)c(C)c1`: the Activity result in data set [1] is recorded as “Non-Toxic”.

Regarding `CC(C)(C)c1ccc(S(=O)(=O)N(Nc2ccccc2)C(=O)Oc2ccc(OCc3ccccc3)cc2)cc1`, in data set [1], the Activity result is “Non-Toxic”.

For the compound `O=C(Oc1ccc(OCc2ccccc2)cc1)N(Nc1ccccc1)S(=O)(=O)c1ccc(Cl)cc1`, in [1], the Activity entry is “Non-Toxic”. For the same compound, the pIC50 in data set [2] was 7.23.

In the case of `O=C(Oc1ccccc1)N(Nc1ccccc1)S(=O)(=O)c1ccc(Br)cc1`, in [1], the Activity entry is reported as “Non-Toxic”.

As for `Cc1cc(C)c(S(=O)(=O)N(Nc2ccccc2)C(=O)Oc2ccc(Oc3ccccc3)cc2)c(C)c1`, the Activity entry in [1] is given as “Non-Toxic”. Besides, in [2], the pIC50 was 6.75.

As to `Cc1cc(C)c(S(=O)(=O)N(Nc2ccccc2)C(=O)Oc2cccc3c2CCC3)c(C)c1`, the Activity entry in data set [1] is “Non-Toxic”. This compound had a negative logarithm of the IC50 (pIC50) in [2] of 6.50.

As for `O=C(Oc1ccc(Oc2ccccc2)cc1)N(Nc1ccccc1)S(=O)(=O)c1ccc(-c2ccccc2)cc1`, in [1], the Activity entry is “Non-Toxic”. In data set [2], this compound had a pIC50 of 6.79.

Take `O=C(Oc1ccc([N+](=O)[O-])cc1)N(Nc1ccc(Cl)cc1)S(=O)(=O)c1ccc(Cl)cc1`: in [1], the Activity entry was “Non-Toxic”. Moreover, the negative logarithm of the IC50 (pIC50) in data set [2] was 6.19.
